This is an account of results in publication PMC6470838 (Pharmaceutics, 2019).

The nature of data set [1]: Rivaroxaban plasma pharmacokinetics after oral administration in rats (model independent analysis). In kind it is in vivo, Sprague Dawley rats. On the procedure:
The animals used in this study were 15 Sprague Dawley rats (8-week-old males, 280–300 g). […] The study protocol was approved by the Institutional Animal Care and Use Committees (IACUC) at Chung-Ang University. All animals used in this study were cared for in accordance with the principles outlined in the National Institutes of Health Guide for the Care and Use of Laboratory Animals.
(§1) All drugs were suspended in corn oil and administered orally.
(§2) After centrifugation (17,000 rpm, 10 min), plasma samples were stored at –70 °C until analysis, using 30 μL of plasma.
Acetonitrile (90 μL) including flufenamic acid (10 ng/mL) was added to the plasma samples (30 μL). The mixture was vigorously vortexed for 10 s and centrifuged at 17,000 rpm for 10 min. A 5-μL sample of the supernatant was injected onto the LC-MS/MS.
The compounds were purified on a reversed-phase column (Atlantis® T3, 50 × 2.1 mm internal diameter, 3 µm particle size; Waters) at 30 °C.

For data set [2], the system named is prothrombin time. Description: Prothrombin time after oral administration of rivaroxaban in rats. It counts as in vivo, Sprague Dawley rats. To be noted: for AUEC, area under the percentage increase of prothrombin time vs. time curve / Emax, maximum percentage increase of prothrombin time: rivaroxaban 2 mg/kg oral, alone or with verapamil 25 mg/kg or diltiazem 30 mg/kg, mean (RSD %), n = 5. On the procedure:
as §1, §2
Prothrombin time was measured using a blood coagulation analyzer (ACL 7000, Instrumentation Laboratory, Bedford, MA, USA) at Korea Conformity Laboratories (Incheon, Korea) using PT recombiPlasTin 2G reagent (Instrumentation Laboratory, Bedford, MA, USA).
The time courses of prothrombin time were used to determine pharmacodynamic parameters: peak effect observed (Emax,observed) was directly obtained from the individual time courses; and the area under the effect-time curve (AUECt) was calculated by the trapezoidal rule.

In data set [3] the test system is prothrombin time.
Data set [4] deals with prothrombin time. As to conditions: humans; cited from earlier work.
Data set [5] can be described thus: in vivo. To be noted: male, Sprague Dawley, rat, plasma, oral, 2 mg/kg.
The conditions of data set [6]: ketoconazole 400 mg, qd; cited from earlier work.
[7] abbreviates: male, Sprague Dawley, rat, plasma, po, 2 mg/kg.
The mark [8] stands for this setting: PK/PD model parameter of rivaroxaban, presence or absence of verapamil, mean (RSD %), n = 5.
Where [9] appears, read: compared with rivaroxaban 2 mg/kg alone, verapamil 25 mg/kg oral, rats.
[10] abbreviates: diltiazem 30 mg/kg oral, rats, vs rivaroxaban alone.

Like-named read-outs stand apart in the source and are kept apart here.

For the molecule `O=C(NC[C@H]1CN(c2ccc(N3CCOCC3=O)cc2)C(=O)O1)c1ccc(Cl)s1` [Rivaroxaban], in data set [1] (setting [7]), the area under the curve AUC(0-inf) (usually the area under the concentration-time curve extrapolated to infinity) is 2700 ng·h/mL; the CL/F – broadly, clearance divided by bioavailability, as obtained after extravascular dosing – was 12.9 mL/min/kg; the Cmax (commonly the maximum level reached in the sampled fluid or tissue) turned out to be 373 ng/mL; the time to peak (Tmax) (in general, the time at which the peak concentration occurs) came out at 2.8 h. Also, the AUCinf in data set [1] (rivaroxaban in plasma, rivaroxaban 2 mg/kg oral, alone or with verapamil 25 mg/kg or diltiazem 30 mg/kg, mean (RSD %), n = 5) amounted to 2700 ng·h/mL. Besides, in data set [2], the “AUEC, area under the percentage increase of prothrombin time vs. time curve” value is given as 188 (9) % ∙h and the “Emax, maximum percentage increase of prothrombin time” value is 30 (11) %. In data set [2] (listed as rivaroxaban), the “AUEC, area under the percentage increase of prothrombin time vs. time curve” value came to 188 % ∙h and the “Emax, maximum percentage increase of prothrombin time” value turned out to be 30%. Further, in data set [3] (setting [8]), the “Slope, percentage increase of prothrombin time vs. rivaroxaban plasma concentration” value is 0.08 (44) %·mL/ng; the “f, absorption fraction” value is on record as 0.61 (30) fraction; the “ka, absorption rate constant” value is 0.63 (22) h^−1; the “ttransit, transit time” value is 6.37 (21) h. In addition, the “ttransit, transit time” value in data set [3] (PK/PD model parameter of rivaroxaban, presence or absence of verapamil, mean (RSD %), n = 5, listed as rivaroxaban) was 6.4 h. The “Slope of relative prothrombin time (ratio of the baseline level) vs. rivaroxaban plasma concentration” value in data set [3] (rats, prothrombin times rescaled to ratio of baseline) was 0.00054. Further, the “Part of the dose initially absorbed, contributing to the first peak” value in data set [3] (rivaroxaban alone, model estimate) was 40%. For the same molecule, in data set [4], the “Slope of relative prothrombin time vs. rivaroxaban plasma concentration” value is listed as “approximately 0.0029”. In data set [5], the Vd/F (in general, the volume of distribution divided by bioavailability) was 0.96 L/kg and the k el was 0.000236 s⁻¹.

As to `COc1ccc(CCN(C)CCCC(C#N)(c2ccc(OC)c(OC)c2)C(C)C)cc1OC` (stereo not shown) [Verapamil], in data set [2] (setting [9]), the “Increase of AUEC of prothrombin time by the co-administered drug” value was 2.6 fold and the “Increase of Emax of prothrombin time by the co-administered drug” value amounted to 2.5 fold. Besides, the “Effect of the co-administered drug on the slope (percentage increase of prothrombin time vs. rivaroxaban concentration)” value in data set [3] (verapamil 25 mg/kg, rats) is on record as “no difference”.

As for `COc1ccc([C@@H]2Sc3ccccc3N(CCN(C)C)C(=O)[C@@H]2OC(C)=O)cc1` [diltiazem], the “Effect of the co-administered drug on clearance and AUCinf of rivaroxaban” value in data set [1] (setting [10]) was “no statistical differences”. Besides, in data set [2] (setting [10]), the “Effect of the co-administered drug on Emax and AUEC of prothrombin time” value was “did not represent any significant changes”.

For the molecule `CC(=O)N1CCN(c2ccc(OCC3COC(Cn4ccnc4)(c4ccc(Cl)cc4Cl)O3)cc2)CC1` (stereo not shown) [ketoconazole], the “Effect of the concomitant drug on the systemic exposure of rivaroxaban” value in data set [6] was “significantly increased”.
